Several values for one entry are separate records, joined by “and”; a condition that tells them apart may be missing. Identical values can stand only once.
How the values were obtained:
[1] = Liquid
[2] = xn = mol fraction of the nth substance listed; conditions: Liquid; for viscosity: Falling or rolling sphere viscometry; for mass density: Vibrating tube method

CCCCCCCCCCCCCCCCCC [octadecane]
[1]
Conditions	mass density
323.1 K	757 kg/m3 [middle of 4 runs]
323.3 K	756 kg/m3 and 757 kg/m3
372.8 K	734 kg/m3 [middle of 6 runs]
422.5 K	703 kg/m3 and 704 kg/m3
422.6 K	700 kg/m3 [middle of 6 runs]

CCCCCCCCCCCCCCCCCC [octadecane] + CC
[2]
Conditions	mass density [kg/m3]	viscosity [mPa·s]
323.1 K, x2 = 0.27	732	1.59
323.1 K, x2 = 0.415	715	1.09
323.1 K, x2 = 0.789	606	0.31
323.1 K, x2 = 0.844	572	0.23
323.3 K, x2 = 0.546	691	0.81
323.3 K, x2 = 0.654	662	0.55
372.8 K, x2 = 0.127	719	0.87
372.8 K, x2 = 0.298	703	0.7
372.8 K, x2 = 0.372	692	0.62
372.8 K, x2 = 0.474	676	0.52
372.8 K, x2 = 0.536	664	0.46
372.8 K, x2 = 0.599	648	0.39
372.8 K, x2 = 0.666	628	0.32
372.8 K, x2 = 0.701	614	0.29
422.5 K, x2 = 0.547	624	0.29
422.5 K, x2 = 0.588	613	0.27
422.6 K, x2 = 0.096	688	0.55
422.6 K, x2 = 0.194	679	0.49
422.6 K, x2 = 0.296	667	0.43
422.6 K, x2 = 0.365	659	0.4
422.6 K, x2 = 0.427	648	0.37
422.6 K, x2 = 0.477	640	0.33

Source: the NIST ThermoML archive (doi:10.1021/je200787v)
